Tested on: ET-A and/or ET-B receptor
Assay: contraction of human aortic rings in organ culture (agonist assay)
Details: increasing concentrations 0.01 nM to 100 nM, at top concentration, 37° C.
Protocol: Endothelin-1 is a peptide which signals through the ET-A and/or ET-B receptor to cause vasoconstriction. To determine whether compounds of the invention are agonists at ET-A and/or ET-B, rings of human aorta (obtained from transplant donor hearts) can be put into organ culture. Rings are then exposed either to increasing concentrations of Endothelin-1 (from 0.01 nM to 100 nM), or to increasing concentrations of the test compound(s) (from about 0.1 nM to about 10 mM) at 37° C., raising the concentration of the appropriate agent approximately every 5 minutes. Throughout the experiment the contraction of the aortic ring is measured by a strain gauge designed and commercially available for such a purpose. […] If the compound of the invention is an agonist at the endothelin receptors, then the force exerted on the strain guage will also be higher (at least at certain concentrations) than prior to addition of the test compound.

## Endothelin-1
  force exerted on the strain gauge versus prior to addition: significantly higher

Reference: patent US8618283B2, “Ligand libraries for screening GPCRs” (Cambridge Enterprise Limited, priority 2005, dated 2013)
